pIC50: −log10 of the molar value. Read-outs that look alike come from different tables or passages of the source.
Tests used:
HD-MB03 and DAOY cells = assay: Western blot of target proteins; assay type: cell-based, human; details: for GLI1 and GLI2 protein expression: HD-MB03 and DAOY cells
Description: FIGS. 4A and 4B provide images of western blot analyses of target proteins after HDMB03 and DAOY cells were incubated with 5.0 μM of the indicated compounds for 48 hours. FIG. 4C (HD-MB03) and 4D (DAOY) provide western blot images which show the effects of MDP5 treatment on target proteins including GLI1 and GLI2. FIG. 4E provides representative confocal images of DAOY and HD-MB03 spheroids after treatment with 5.0 μM MDP5. […] Spheroids were stained for live (calcein AM) and dead (ethidium homodimer-1) cells after 7 days of treatment. Scale bars=200 μm. […] Next, cells were incubated with APC-CD15 for 30 minutes on ice in the dark. Before FACS analysis, samples were washed thrice with a staining buffer. FIG. 4G provides a graph showing the quantitation of CD15+ cells (n=3; p<0.05, control vs. treatment groups).
The whole protein from each treated group was extracted using RIPA buffer containing a cocktail of protease inhibitors (Sigma-Aldrich) for protein level determination. Protein concentration was determined using a BCA assay (Peirce). Next, 40 μg protein was subject to SDS-PAGE in a 10% gel. Following the transfer of targeted proteins onto polyvinylidene difluoride sheets, the membranes were washed with Tris-buffered saline plus Tween® 20 (TTBS; cat. no. WLA025; Wanleibio Co., Ltd.) for 5 minutes and then blocked with skimmed milk powder solution for 1 hour. Primary antibodies against Gli1 (1:1000), Gli2 (1:1000), MYCN (1:1,000), p-MYCN (1:1,000), Bcl-2 (1:1000), Bax (1:1000), p-PI3K (1:500), PI3K (1:1000), p-Akt (1:500), Akt (1:1000), Cyclin D1 (1:1000), and β-actin (1:1,000) were added and the membranes were incubated at 4° C. overnight. After an additional four washes with TBST, secondary IgG antibodies conjugated to horseradish peroxidase (1:5,000) were incubated with the membranes for 45 minutes at 37° C. Following a further six washes with TBST, the blots were developed using ECL start Western blotting detection kit (GE Healthcare) and the results were recorded in the iBright™ FL100 (Invitrogen). The relative expression levels of these proteins in different groups were calculated with the iBright™ software.

HD-MB03 cells [1] = assay: Cell viability MTT assay in HD-MB03 cells; assay type: cell-based, human
Description: For cell viability assay, DAOY cells from SHH-MB group and HD-MB03 from Group 3 MB were exposed to new analogs in a range of concentrations. In brief, cells were seeded in 96-well plate with a density of 3×10^3 cells/well density for 16 hours. Cells were then treated with different drug concentrations for 48-72 hours. MTT assay reagent was added to the cells and after incubation for 4 hours, formazan crystals were dissolved in 200 μL DMSO, and the absorbance was determined using a microplate reader (Molecular Devices Me5). The IC50 was determined by nonlinear least square regression by performing each experiment in triplicate.

DAOY cells = assay: Cell cycle analysis in DAOY cells; assay type: cell-based, human; details: 5 μM, 48 hours; control 52.8%
Source text: FIGS. 3A-3F show the effect of MDP5 treatment on cell cycle analysis, induction of apoptosis, and colony formation assay in MB cells. […] Histograms show the quantitative analysis of cell cycle assay for DAOY (FIG. 3A) and HD-MB03 (FIG. 3B) cells (n=5; mean±S.D., p<0.05). […] FIG. 3C provides images of cells treated with the indicated compounds. […] FIGS. 3D and 3E provide graphs of the apoptotic assay showing higher numbers of apoptotic cells in MDP5 treated groups (n=5; mean±S.D.; p<0.05). FIG. 3F provides a graph of the relative expression of BCL2 and MYCN target genes after treatment, as determined by RT-PCR.
Cell cycle distribution was determined in proliferating MB cells. […] Cells were harvested with 0.25% EDTA-free trypsin (Gibco) and washed twice in ice-cold PBS. Control and treated cells (0.1×10^6) were stained with FxCycle™ PI/RNase Staining Solution (ThermoFisher Scientific) and analyzed for DNA content via flow cytometry.

HD-MB03 cells [2] = assay: Annexin V/PI apoptosis assay in HD-MB03 cells; assay type: cell-based, human; details: 48 hours of treatment; untreated 29.76%
Description: For apoptosis assay, the cells were collected as above and stained with 500 μL 1× binding buffer containing 5 μL annexin V-FITC and 10 μL propidium iodide (PI) in the dark for 5 minutes. Flow cytometry (FACSCalibur™ cytometer, BD Biosciences) was performed to quantify and calculate the cell apoptosis rate. AV-FITC values were set horizontally, and PI values were set as vertical axes. All experiments were performed in triplicate.

ONS-76 cells = assay: Side population (SP) assay; assay type: cell-based; details: 30 minutes preincubation; control 4.57%
Description: After washing thrice with staining buffer, 1×10^6 cells were stained with 5 μg/mL of Hoechst 33342 (Thermo Scientific; 62,249) for 1 hour in an incubator with occasional shaking every 20 minutes. The PI solution 5 μL was added to exclude dead cells and analyzed with flow cytometry (LSRII, BD Biosciences).

MB cells = assay: Scratch (wound) cell migration assay; assay type: cell-based, human; details: 0 to 24 hours, vs untreated MB cells
Description: Regarding the cell migration, scratch distances and width closure were measured between images from time 0 to 24 hours. After 24 hours, the untreated MB cells migrated and covered approximately 50% to 60% of the wound area quantified at time zero. […] Initial wound edges marked initial cell migration and were used to identify the decrease in wound width throughout the experiment. Migration distances were shown separately during the period of 0-24 hours. A significant difference in migration distance was found for the treated group compared to the control, while no difference in motility was found within the treated groups.

[3] = tested on: DAOY and HD-MB03 spheroids; assay: Tumor spheroid live/dead assay; assay type: cell-based, human; details: 5.0 μM, 7 days
Description: Tumor spheroids were formed using MB cells following the method described (Bhattarai, et al. (2021) J. Control. Release 329:585-597). For tumor spheroids assay, 1500 and 500 DAOY and HD-MB03 cells, respectively, were suspended in 100 μL media and seeded in ultra-low attachment (ULA) 96-well plate for a week and 50 μL of media was replaced by fresh media every third day and spheroid size was tracked under fluorescent microscope. […] After 7 days of the treatment period, spheroids were stained with Calcein AM (2 μM) and ethidium homodimer-1 (3 μM) (LIVE/DEAD™; L3224) to check the live/dead cells. Images were taken by confocal laser microscope (Zesis LSM 710) with 10× magnification at 40 μm depth.

| SMILES | GLI1 and GLI2 protein expression (HD-MB03 and DAOY cells) | pIC50 (HD-MB03 cells [1]; Homo sapiens, HD-MB03, 48-72 hours, read-out: IC50 in HD-MB03 cells) | cells in the G1 phase, DAOY (DAOY cells) [%] | percentage of apoptosis, HD-MB03 (HD-MB03 cells [2]) [%] | percentage of SP proportion (ONS-76 cells) [%] | cell migration into wound area (MB cells) | Cyclin D1, p-AKT (Ser473) and p-PI3K protein levels (HD-MB03 and DAOY cells; 5.0 μM, 48 hours) | p-MYCN (Ser54) level (HD-MB03 and DAOY cells; 5.0 μM, 48 hours) | GLI1 protein expression in HD-MB03 cells (HD-MB03 and DAOY cells; among treated HD-MB03 cells) | pIC50 (HD-MB03 cells [1]; Homo sapiens, HD-MB03, 48-72 hours, read-out: IC50 in HDMB-03 cells (unit printed M)) | cell viability of tumor spheroids [3] | size / formation of tumor spheroids ([3]; vs DMSO-treated control) | GLI2 protein accumulation (HD-MB03 and DAOY cells; compared with other treatments) | pIC50 (HD-MB03 cells [1]; 48-72 hours, read-out: IC50 in HD-MB03 cells) |
| --- | --- | --- | --- | --- | --- | --- | --- | --- | --- | --- | --- | --- | --- | --- |
| O=C(/C=C/N1CCOCC1)c1cccc(-c2cc3c(cc2Br)OCCO3)c1O [MDP1, (E)-1-(3-(7-bromo-2,3-dihydrobenzo [b][1,4]dioxin-6-yl)-2-hydroxyphenyl)-3-morpholinoprop-2-en-1-one] | decrease in levels of both proteins | 5.25 | 40.1 | 65.66 | 0.7 | lesser migration | – | – | – | – | – | – | – | – |
| O=c1cc(N2CCOCC2)oc2c(-c3ccc4c(c3)OCCO4)cccc12 [MDP5, 8-(2,3-dihydrobenzo [b][1,4]dioxin-6-yl)-2-morpholino-4H-chromen-4-one] | decrease in levels of both proteins | – | 73.2 | 65.15 | 0.9 | lesser migration | reduced | explicitly induced | largest reduction in GLI1 protein expression | 5.29 | significantly decreased | decreased the tumor spheroid formation in both MB cells | – | – |
| O=c1cc(N2CCOCC2)oc2c(-c3ccc4c(c3)OCCO4)csc12 [SF2523, reference compound] | – | – | 73.1 | 54 | 2.57 | lesser migration | – | – | – | – | significantly decreased | – | exceeded all other treatment options in terms of lowering GLI2 protein accumulation | 5.29 |

— patent US20260069599A1, “INHIBITORS OF BROMODOMAIN-CONTAINING PROTEIN 4 AND PHOSPHOINOSITIDE 3-KINASE” (Board of Regents of the University of Nebraska, priority 2022, published 2026)
